Laboratory results: ChEMBL document CHEMBL3046389, “Synthesis and biological evaluation of novel hydroquinone dimethyl ethers as potential anticancer and antimicrobial agents” (2013)
Converted amounts (≈) assume the structure as drawn.

Key:
Type in all cases: functional
HCT-116 = experiment: Growth inhibition of Homo sapiens (human) HCT116 cells at 10 uM after 48 hr by SRB assay; conditions: HCT-116, 48 h, read-out: GI
BT-549 = experiment: Growth inhibition of Homo sapiens (human) BT549 cells at 10 uM after 48 hr by SRB assay; conditions: BT-549, 48 h, read-out: GI
Hs-578T = experiment: Growth inhibition of Homo sapiens (human) Hs 578T cells at 10 uM after 48 hr by SRB assay; conditions: read-out: GI
UO-31 [1] = experiment: Growth inhibition of Homo sapiens (human) UO31 cells at 10 uM after 48 hr by SRB assay; conditions: UO-31, 48 h, read-out: GI
TK-10 = experiment: Growth inhibition of Homo sapiens (human) TK10 cells at 10 uM after 48 hr by SRB assay; conditions: TK-10, 48 h, read-out: GI
SN12C = experiment: Growth inhibition of Homo sapiens (human) SN12C cells at 10 uM after 48 hr by SRB assay; conditions: read-out: GI
COLO 205 = experiment: Anticancer activity against Homo sapiens (human) COLO205 cells after 48 hr by SRB assay; conditions: COLO 205, 48 h
NCI-H23 = experiment: Anticancer activity against Homo sapiens (human) NCI-H23 cells after 48 hr by SRB assay; conditions: NCI-H23, 48 h
HOP-92 = experiment: Anticancer activity against Homo sapiens (human) HOP92 cells after 48 hr by SRB assay; conditions: HOP-92, 48 h
EKVX = experiment: Anticancer activity against Homo sapiens (human) EKVX cells after 48 hr by SRB assay
K562 = experiment: Growth inhibition of Homo sapiens (human) K562 cells at 10 uM after 48 hr by SRB assay; conditions: K562, 48 h, read-out: GI
HL-60(TB) = experiment: Growth inhibition of Homo sapiens (human) HL-60(TB) cells at 10 uM after 48 hr by SRB assay; conditions: HL-60, 48 h, read-out: GI
Staphylococcus aureus = experiment: Antimicrobial activity against Staphylococcus aureus DSM 1104 after 48 hr by two-fold serial broth dilution method; conditions: DSM 1104, 48 h
MDA-MB-468 = experiment: Anticancer activity against Homo sapiens (human) MDA-MB-468 cells after 48 hr by SRB assay; conditions: MDA-MB-468, 48 h
T47D = experiment: Anticancer activity against Homo sapiens (human) T47D cells after 48 hr by SRB assay
MCF7 = experiment: Anticancer activity against Homo sapiens (human) MCF7 cells after 48 hr by SRB assay; conditions: MCF7, 48 h
DU-145 = experiment: Anticancer activity against Homo sapiens (human) DU145 cells after 48 hr by SRB assay; conditions: DU-145, 48 h
PC-3 = experiment: Anticancer activity against Homo sapiens (human) PC3 cells after 48 hr by SRB assay; conditions: PC-3, 48 h
UO-31 [2] = experiment: Anticancer activity against Homo sapiens (human) UO31 cells after 48 hr by SRB assay; conditions: UO-31, 48 h
RXF 393 = experiment: Anticancer activity against Homo sapiens (human) RXF393 cells after 48 hr by SRB assay; conditions: RXF 393, 48 h
SK-OV-3 [3] = experiment: Growth inhibition of Homo sapiens (human) SKOV3 cells at 10 uM after 48 hr by SRB assay; conditions: SK-OV-3, 48 h, read-out: GI
786-0 = experiment: Anticancer activity against Homo sapiens (human) 786-0 cells after 48 hr by SRB assay; conditions: 786-0, 48 h
SK-OV-3 [4] = experiment: Anticancer activity against Homo sapiens (human) SKOV3 cells after 48 hr by SRB assay; conditions: SK-OV-3, 48 h
NCI/ADR-RES = experiment: Anticancer activity against Homo sapiens (human) NCI/ADR-RES cells after 48 hr by SRB assay
OVCAR-5 = experiment: Anticancer activity against Homo sapiens (human) OVCAR5 cells after 48 hr by SRB assay; conditions: OVCAR-5, 48 h
OVCAR-3 = experiment: Anticancer activity against Homo sapiens (human) OVCAR3 cells after 48 hr by SRB assay; conditions: OVCAR-3, 48 h
SK-MEL-5 = experiment: Anticancer activity against Homo sapiens (human) SK-MEL-5 cells after 48 hr by SRB assay; conditions: SK-MEL-5, 48 h
UACC-257 = experiment: Anticancer activity against Homo sapiens (human) UACC257 cells after 48 hr by SRB assay; conditions: UACC-257, 48 h
MDA-MB-435 = experiment: Anticancer activity against Homo sapiens (human) MDA-MB-435 cells after 48 hr by SRB assay; conditions: MDA-MB-435, 48 h
Escherichia coli = experiment: Antimicrobial activity against Escherichia coli ATCC 11775 after 48 hr by two-fold serial broth dilution method; conditions: ATCC 11775, 48 h
IGROV-1 = experiment: Growth inhibition of Homo sapiens (human) IGROV1 cells at 10 uM after 48 hr by SRB assay; conditions: IGROV-1, 48 h, read-out: GI
U-251 = experiment: Growth inhibition of Homo sapiens (human) U251 cells at 10 uM after 48 hr by SRB assay; conditions: U-251, 48 h, read-out: GI
HCT-15 = experiment: Growth inhibition of Homo sapiens (human) HCT15 cells at 10 uM after 48 hr by SRB assay; conditions: HCT-15, 48 h, read-out: GI
[5] = read-out: LC50 (the source's name)

Which results are given for COc1ccc(OC)c(/C=C/C(=O)N/N=C/c2ccc(Cl)cc2)c1?
inhibition of growth at 10 µM (HCT-116): 94.3%; inhibition of growth at 10 µM (BT-549): 36.5%; inhibition of growth at 10 µM (Hs-578T): 102%; inhibition of growth at 10 µM (UO-31 [1]): 69.9%; inhibition of growth at 10 µM (TK-10): 49%; inhibition of growth at 10 µM (SN12C): 53.8%; GI50 (COLO 205): 153 nM; TGI (COLO 205): 595 nM; CC50 (COLO 205; [5]): 63900 nM; GI50 (NCI-H23): 148 nM; TGI (NCI-H23): 2460 nM; CC50 (NCI-H23; [5]): > 100000 nM; GI50 (HOP-92): 4430 nM; TGI (HOP-92): 58900 nM; CC50 (HOP-92; [5]): > 100000 nM; GI50 (EKVX): 816 nM; TGI (EKVX): > 100000 nM; CC50 (EKVX; [5]): > 100000 nM; inhibition of growth at 10 µM (K562): 86%; inhibition of growth at 10 µM (HL-60(TB)): 79.9%; MBC (Staphylococcus aureus): 100 µg/mL (≈ 290 µM); MIC (Staphylococcus aureus): 100 µg/mL (≈ 290 µM); GI50 (MDA-MB-468): 142 nM; TGI (MDA-MB-468): 445 nM; CC50 (MDA-MB-468; [5]): > 100000 nM; GI50 (T47D): 160 nM; TGI (T47D): > 100000 nM; CC50 (T47D; [5]): > 100000 nM; GI50 (MCF7): 74.3 nM; TGI (MCF7): 32500 nM; CC50 (MCF7; [5]): > 100000 nM; GI50 (DU-145): 217 nM; TGI (DU-145): 8400 nM; CC50 (DU-145; [5]): > 100000 nM; GI50 (PC-3): 169 nM; TGI (PC-3): > 100000 nM; CC50 (PC-3; [5]): > 100000 nM; GI50 (UO-31 [2]): 3370 nM; LC50 (50% lethal concentration) (UO-31 [2]): > 100000 nM; TGI (UO-31 [2]): > 100000 nM; GI50 (RXF 393): 46.9 nM; LC50 (RXF 393): > 100000 nM; TGI (RXF 393): 298 nM; inhibition of growth at 10 µM (SK-OV-3 [3]): 105%; GI50 (786-0): 326 nM; TGI (786-0): > 100000 nM; CC50 (786-0; [5]): > 100000 nM; GI50 (SK-OV-3 [4]): 149 nM; LC50 (SK-OV-3 [4]): > 100000 nM; TGI (SK-OV-3 [4]): 13900 nM; GI50 (NCI/ADR-RES): 39.1 nM; LC50 (NCI/ADR-RES): 90600 nM; TGI (NCI/ADR-RES): 233 nM; GI50 (OVCAR-5): 10900 nM; TGI (OVCAR-5): > 100000 nM; CC50 (OVCAR-5; [5]): > 100000 nM; GI50 (OVCAR-3): 33.5 nM; LC50 (OVCAR-3): > 100000 nM; TGI (OVCAR-3): 115 nM; GI50 (SK-MEL-5): 58.1 nM; LC50 (SK-MEL-5): > 100000 nM; GI50 (UACC-257): 36500 nM; LC50 (50% lethal concentration) (UACC-257): > 100000 nM; TGI (UACC-257): > 100000 nM; GI50 (MDA-MB-435): 31.1 nM; TGI (MDA-MB-435): 98.8 nM; CC50 (MDA-MB-435; [5]): > 100000 nM; MBC (Escherichia coli): 100 µg/mL (≈ 290 µM); MIC (Escherichia coli): 50 µg/mL (≈ 145 µM); inhibition of growth at 10 µM (IGROV-1): 82.1%; inhibition of growth at 10 µM (U-251): 81.6%; inhibition of growth at 10 µM (HCT-15): 70.6%
